Results from patent US10385024B2, “Compounds and methods for inhibiting NHE-mediated antiport in the treatment of disorders associated with fluid retention or salt overload and gastrointestinal tract disorders” (Ardelyx, Inc., priority 2012, dated 2019).

Columns and labels:
human NHE-3 = target: T1, human NHE-3 (Homo sapiens, UniProt P48764); test: Cell-based assay of NHE-3 activity (human NHE3 inhibition assay); conditions: OK cells with human NHE-3 gene, BCECF pH dye, 0-30 μM test compound
T1 construct: expressed in transfected cells; host or cells: Opossum kidney (OK) cells (ATCC), transfected by electroporation
T1 sequence (P48764 26-834): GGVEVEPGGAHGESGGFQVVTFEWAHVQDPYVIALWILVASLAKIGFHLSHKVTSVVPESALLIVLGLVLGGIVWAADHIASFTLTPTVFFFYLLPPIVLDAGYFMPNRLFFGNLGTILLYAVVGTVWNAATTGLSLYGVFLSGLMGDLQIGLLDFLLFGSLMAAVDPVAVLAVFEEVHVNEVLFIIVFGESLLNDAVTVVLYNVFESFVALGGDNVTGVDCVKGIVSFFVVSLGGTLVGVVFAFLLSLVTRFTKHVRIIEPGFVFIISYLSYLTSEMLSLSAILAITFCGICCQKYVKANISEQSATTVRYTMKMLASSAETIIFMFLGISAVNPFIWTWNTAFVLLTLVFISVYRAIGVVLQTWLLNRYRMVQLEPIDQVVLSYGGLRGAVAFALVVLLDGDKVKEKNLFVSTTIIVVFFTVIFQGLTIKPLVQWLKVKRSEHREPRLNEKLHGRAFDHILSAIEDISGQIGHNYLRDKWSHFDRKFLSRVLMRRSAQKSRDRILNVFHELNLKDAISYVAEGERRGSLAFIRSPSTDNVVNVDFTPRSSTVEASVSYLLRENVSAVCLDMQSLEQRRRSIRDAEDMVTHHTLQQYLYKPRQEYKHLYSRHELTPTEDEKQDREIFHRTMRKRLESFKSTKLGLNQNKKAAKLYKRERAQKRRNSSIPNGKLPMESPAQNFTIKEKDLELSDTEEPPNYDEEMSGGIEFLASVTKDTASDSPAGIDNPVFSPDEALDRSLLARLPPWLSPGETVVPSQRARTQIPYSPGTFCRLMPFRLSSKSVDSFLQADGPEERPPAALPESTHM
How it was run: (§1)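 Opossum kidney cells electroporated with rat or human NHE-3, loaded with 5 μM BCECF-AM in NH4Cl-HEPES pH 7.4 for 30 min at RT, then acidified 10 min in Na+-free choline HEPES. Na+-dependent pH recovery rates from BCECF fluorescence, averaged over ≥2 replicates, gave pIC50.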

Rat NHE-3 [1] = target: T2, Rat NHE-3 (Rattus norvegicus, UniProt P26433); test: Cell-based assay of NHE-3 activity (rat NHE-3 prompt inhibition); conditions: OK cells with rat NHE-3 gene, compound present during pH recovery
T2 construct: expressed in transfected cells; host or cells: Opossum kidney (OK) cells (ATCC), transfected by electroporation
How it was run: as §1

Rat NHE-3 [2] = target: T2, Rat NHE-3; test: Cell-based assay of NHE-3 activity (persistent inhibition, after washout); conditions: OK cells with rat NHE-3 gene, 60 min incubation, recovery initiated 40 min after compound washout
How it was run: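 OK cells transiently expressing rat NHE-3 were exposed to 0-30 μM compound in NaCl-HEPES pH 7.4 for 60 min, then washed free of drug before NH4Cl/BCECF-AM loading and acid-loading in Na+-free choline buffer. Na+-dependent pH recovery rates (mean of ≥2 replicates) gave pIC50.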

Fecal recovery = type: in vivo, Sprague Dawley rats; conditions: rat, 1 mg/kg oral gavage, collection time 48 h; for dose excreted: male, Sprague-Dawley, faeces
Procedure: Three male Sprague Dawley rats were administered 1 mg/kg test compound by oral gavage. Feces were collected from study animals from 0-48 or 0-72 hours after dosing, dried by lyophilization, and homogenized. Replicate aliquots of 40-60 mg each were subjected to extraction/protein precipitation with 7:1 acetonitrile:water and centrifuged. Supernatants were diluted 1:10 in 50:50 acetonitrile:water prior to analysis by LC-MS/MS. Compound concentrations, determined by interpolation from a standard calibration curve prepared in blank feces matrix, were converted to the percentage of dosed material recovered by taking into account the total collected fecal matter. The percent recovery for each rat was reported as the mean of the calculations from replicate samples. The overall percent recovery (Fecal Recovery [%]) was reported as the mean percent recovery from three rats. Accurate quality control sample recoveries were confirmed in each run, and extraction efficiency was periodically verified.

T2 sequence (P26433 29-831): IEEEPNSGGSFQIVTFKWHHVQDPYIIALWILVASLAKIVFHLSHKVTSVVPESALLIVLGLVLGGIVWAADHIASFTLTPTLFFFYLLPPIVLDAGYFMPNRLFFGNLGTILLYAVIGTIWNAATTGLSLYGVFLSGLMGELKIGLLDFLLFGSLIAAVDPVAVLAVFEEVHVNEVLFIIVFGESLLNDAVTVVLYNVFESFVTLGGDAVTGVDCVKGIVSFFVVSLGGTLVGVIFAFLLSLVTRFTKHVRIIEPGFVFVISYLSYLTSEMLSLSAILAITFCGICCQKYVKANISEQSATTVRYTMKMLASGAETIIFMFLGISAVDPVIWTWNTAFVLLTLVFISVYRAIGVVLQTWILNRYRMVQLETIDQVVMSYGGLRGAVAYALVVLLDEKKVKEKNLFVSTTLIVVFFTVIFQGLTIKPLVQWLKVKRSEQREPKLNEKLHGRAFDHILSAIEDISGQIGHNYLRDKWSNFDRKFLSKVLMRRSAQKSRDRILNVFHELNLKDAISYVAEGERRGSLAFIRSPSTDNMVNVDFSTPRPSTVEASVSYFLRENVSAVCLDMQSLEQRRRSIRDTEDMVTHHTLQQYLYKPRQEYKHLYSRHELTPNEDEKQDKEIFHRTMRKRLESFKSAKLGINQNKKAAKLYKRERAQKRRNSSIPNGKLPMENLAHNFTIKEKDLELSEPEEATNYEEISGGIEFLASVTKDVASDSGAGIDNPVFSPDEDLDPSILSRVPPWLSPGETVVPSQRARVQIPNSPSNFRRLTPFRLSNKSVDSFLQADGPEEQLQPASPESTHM

SMILES | Human NHE3 pIC50 (human NHE-3) | Rat NHE3 pIC50 (prompt) (Rat NHE-3 [1]) | Rat NHE3 pIC50 (persistent) (Rat NHE-3 [2]) | Fecal Recovery (Fecal recovery) [%] | IC50 (human NHE-3; read-out: Human NHE3 pIC50 (converted)) [nM] | IC50 (Rat NHE-3 [1]; read-out: Rat NHE3 pIC50 (prompt) (converted)) [nM] | IC50 (Rat NHE-3 [2]; read-out: Rat NHE3 pIC50 (persistent) (converted)) [nM] | dose excreted (Fecal recovery) [%]
CN1Cc2c(Cl)cc(Cl)cc2[C@H](c2cccc(S(=O)(=O)NCCOCCOCCNC(=O)CCC(CCC(=O)NCCOCCOCCNS(=O)(=O)c3cccc([C@@H]4CN(C)Cc5c(Cl)cc(Cl)cc54)c3)(CCC(=O)NCCOCCOCCNS(=O)(=O)c3cccc([C@@H]4CN(C)Cc5c(Cl)cc(Cl)cc54)c3)NC(=O)CCC(=O)O)c2)C1 [Example 40] | C (C NHE3 pIC50 > 7) | C (C NHE3 pIC50 > 7) | C (C NHE3 pIC50 > 7) | 99.1 | – | – | – | –
CN1Cc2c(Cl)cc(Cl)cc2[C@H](c2cccc(S(=O)(=O)NCCOCCOCCNC(=O)NCCCN(CCCNC(=O)NCCOCCOCCNS(=O)(=O)c3cccc([C@@H]4CN(C)Cc5c(Cl)cc(Cl)cc54)c3)CCCNC(=O)NCCOCCOCCNS(=O)(=O)c3cccc([C@@H]4CN(C)Cc5c(Cl)cc(Cl)cc54)c3)c2)C1 [Example 43, (S)—N,N′-(15-(1-(3-((S)-6,8-dichloro-2-methyl-1,2,3,4-tetrahydroisoquinolin-4-yl)phenylsulfonamido)-10-oxo-3,6-dioxa-9,11-diazatetradecan-14-yl)-10,20-dioxo-3,6,24,27-tetraoxa-9,11,15,19,21-pentaazanonacosane-1,29-diyl)bis(3-((S)-6,8-dichloro-2-methyl-1,2,3,4-tetrahydroisoquinolin-4-yl)benzenesulfonamide)] | – | – | – | – | < 100 | 100 to 10000 | < 100 | 53.8
CN1Cc2c(Cl)cc(Cl)cc2[C@H](c2cccc(S(=O)(=O)NCCOCCOCCN(C)C(=O)NCCCN(CCCNC(=O)N(C)CCOCCOCCNS(=O)(=O)c3cccc([C@@H]4CN(C)Cc5c(Cl)cc(Cl)cc54)c3)CCCNC(=O)N(C)CCOCCOCCNS(=O)(=O)c3cccc([C@@H]4CN(C)Cc5c(Cl)cc(Cl)cc54)c3)c2)C1 [Example 55] | C (C NHE3 pIC50 > 7) | B (B NHE3 pIC50 5-7) | C (C NHE3 pIC50 > 7) | – | – | – | – | 64.6
CN1Cc2c(Cl)cc(Cl)cc2[C@H](c2cccc(S(=O)(=O)NCCOCCOCCNC(=O)NCCCC(N)(CCCNC(=O)NCCOCCOCCNS(=O)(=O)c3cccc([C@@H]4CN(C)Cc5c(Cl)cc(Cl)cc54)c3)CCCNC(=O)NCCOCCOCCNS(=O)(=O)c3cccc([C@@H]4CN(C)Cc5c(Cl)cc(Cl)cc54)c3)c2)C1 [Example 62] | C (C NHE3 pIC50 > 7) | B (B NHE3 pIC50 5-7) | C (C NHE3 pIC50 > 7) | – | – | – | – | 81.5
CN1Cc2c(Cl)cc(Cl)cc2[C@H](c2cccc(S(=O)(=O)NCCOCCOCCNC(=O)NCCCC(CCCNC(=O)NCCOCCOCCNS(=O)(=O)c3cccc([C@@H]4CN(C)Cc5c(Cl)cc(Cl)cc54)c3)(CCCNC(=O)NCCOCCOCCNS(=O)(=O)c3cccc([C@@H]4CN(C)Cc5c(Cl)cc(Cl)cc54)c3)NC(=O)NC[C@H](O)[C@@H](O)[C@H](O)[C@H](O)CO)c2)C1 [Example 65] | C (C NHE3 pIC50 > 7) | B (B NHE3 pIC50 5-7) | C (C NHE3 pIC50 > 7) | – | – | – | – | 112
